Measured values from PubChem BioAssay AID624405 (Broad Institute, 2012).
Records with an inconclusive call do not appear.

System: C2C12 myotubes + simvastatin, ATP luminescence, 48 h
Assay: rescue of simvastatin-induced ATP loss – cell-based, C2C12 myotubes, ATP luminescence, cherry pick, dose response (AID 624405);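 note: myotubes are challenged with simvastatin at 10 µM to lower ATP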

COc1ccc(S(=O)(=O)Nc2ccc3c(c2)CC(=O)N([C@@H](C)CO)C[C@@H](C)[C@H](CN(C)Cc2ccc(-c4ccccc4)cc2)O3)cc1 showed an AC40 of 11 µM.

CCCn1c(NC(=O)c2ccco2)nc2ccccc21 was tested, and the AC40 was 1.39 µM.

For C[C@H](CO)N1C[C@H](C)[C@H](CN(C)CC2CCCCC2)Oc2ccc(NC(=O)CCCCCC(=O)Nc3ccccc3N)cc2CC1=O, the AC40 was 10.1 µM.

For COC(=O)c1cc(=O)n(CCc2ccccc2F)c(=Nc2ccc(F)c(Cl)c2)s1, the AC40 was 2.81 µM.

Molecule Cc1noc(C)c1S(=O)(=O)Nc1ccc2c(c1)CC(=O)N([C@H](C)CO)C[C@H](C)[C@@H](CN(C)Cc1ccc(C(F)(F)F)cc1)O2 has an AC40 of 4.59 µM.

For CC(=O)c1cc(F)c(N2CCCC2)cc1C, the AC40 was 17.4 µM.

With C[C@H]1CN([C@@H](C)CO)C(=O)Cc2cc(NS(=O)(=O)c3ccc(F)cc3)ccc2O[C@@H]1CN(C)Cc1ccc(Cl)c(Cl)c1 the AC40 was 15.8 µM.

For O=S(=O)(NCc1ccco1)c1ccc(S(=O)(=O)N2CCCCC2)cc1, the AC40 was 5.03 µM.

Molecule C[C@H](CO)N1C[C@H](C)[C@H](CN(C)Cc2ccc(C(=O)Nc3ccccc3N)cc2)Oc2ccc(NC(=O)Nc3ccc(F)cc3)cc2CC1=O has an AC40 of 1.97 µM.

O=C(CSCc1cnn(-c2ccccc2)c1-n1cccc1)NCc1cccs1 gave an AC40 of 18.9 µM.

C[C@H](CO)N1C[C@H](C)[C@H](CN(C)Cc2ccc(C(=O)Nc3ccccc3N)cc2)Oc2ccc(N(C)C)cc2C1=O showed an AC40 of 2.53 µM.

In the case of COc1cccc(OC)c1C(=O)N1CCN(S(=O)(=O)c2ccc(C)cc2)CC1, the AC40 is reported as 0.233 µM.

Cc1noc(C)c1NC(=O)Nc1cccc2c1O[C@H](CN(C)Cc1ccc(-c3ccccc3)cc1)[C@@H](C)CN([C@H](C)CO)C2=O gave an AC40 of 12.6 µM.

With CC(C)(C)c1ccc(OCC(=O)N/N=C/c2cc(Br)ccc2OC(=O)c2ccco2)cc1 the AC40 was 2.32 µM.

In the case of C[C@H]1CN([C@@H](C)CO)C(=O)c2cc(C#Cc3ccncc3)cnc2O[C@@H]1CN(C)CC1CCCC1, the AC40 is reported as 4.52 µM.

With C[C@H](CO)N1C[C@H](C)[C@@H](CN(C)Cc2ccc(Cl)c(Cl)c2)Oc2ccc(NC(=O)C3CCCCC3)cc2CC1=O the AC40 was 17.4 µM.

CCCNC(=O)Cc1c(O)c2ccccc2[nH]c1=O was tested, and the AC40 was 18.6 µM.

In the case of Cc1nnsc1NC(=O)OCc1ccc(C(F)(F)F)cc1, the AC40 is reported as 8.84 µM.

In the case of COc1ccc(CN2[C@H](CO)[C@H]3c4ccccc4NC[C@H]32)cc1, the AC40 is reported as 17.8 µM.

C[C@@H]1CN([C@H](C)CO)C(=O)Cc2cc(NS(=O)(=O)c3ccc(Cl)cc3)ccc2O[C@H]1CN(C)Cc1ccccc1 showed an AC40 of 4.44 µM.

COC(=O)[C@@]12CCCCN1[C@H](c1ccc(-c3cccc(Cl)c3)c(OC)c1)[C@@H]1C(=O)N(C)C(=O)[C@@H]12 was tested, and the AC40 was 2.72 µM.

Molecule COc1cc(/C=C(/C(=O)c2cccs2)c2nc3ccccc3[nH]2)cc(OC)c1O has an AC40 of 1.38 µM.

Molecule C[C@@H]1CN([C@@H](C)CO)C(=O)c2cc(NC(=O)Nc3cccc4ccccc34)ccc2O[C@H]1CN(C)Cc1ccc(C(=O)Nc2ccccc2N)cc1 has an AC40 of 15.2 µM.

In the case of CCCCCn1c(=O)c(C(=O)c2ccccc2)nc2ccccc21, the AC40 is reported as 15.6 µM.

C[C@H](CO)N1C[C@H](C)[C@@H](CN(C)Cc2ccc(Oc3ccccc3)cc2)Oc2c(NC(=O)Nc3cccc4ccccc34)cccc2C1=O showed an AC40 of 7.98 µM.

In the case of CC(=O)Nc1nc2n(n1)C(c1ccc(F)cc1)C=C(c1ccccc1)N2 (centres undefined), the AC40 is reported as 1.77 µM.

Oc1ccc(Cl)cc1C1=NNC(c2cccs2)C1 (centres undefined) showed an AC40 of 11.4 µM.

Work on COc1ccc(S(=O)(=O)N(C)C[C@H]2Oc3c(NC(=O)Nc4ccccc4)cccc3C(=O)N([C@H](C)CO)C[C@H]2C)cc1 yielded an AC40 of 4.87 µM.

In the case of O=C1N2CCCc3cccc(c32)C12Nc1ccccc1S2 (centres undefined), the AC40 is reported as 14.5 µM.

COc1ccccc1C(=O)Nc1ccc2c(c1)OCO2 showed an AC40 of 4.38 µM.

O=C(CCNS(=O)(=O)c1ccc(Br)cc1)NCc1ccc2c(c1)OCO2 showed an AC40 of 14.8 µM.

With CCOc1ccc2nc(N3CCCC(C(=O)N4CCN(CC)CC4)C3)sc2c1 (centres undefined) the AC40 was 6.42 µM.

In the case of CCn1c(-c2ccc(-c3ccccc3)cc2)c[nH]c1=S, the AC40 is reported as 3.72 µM.

O=C(CN1CCN(c2nc(-c3ccccc3)cs2)CC1)NCc1ccc2c(c1)OCO2 was tested, and the AC40 was 10 µM.
